Consider two sequences from article PMC13233820, “Recruitment of Mre11 to recombination sites during meiosis” (Nature Communications, 2026).

One test addresses T1, Smt3 (Saccharomyces cerevisiae, UniProt Q12306).
T1 construct: 6xHis (C); made in house; host or cells: E. coli BL21 (DE3)pLysS
In words: Isothermal titration calorimetry, SIM3 peptides on Smt3. It counts as binding. The note with it: 2 mM peptide in syringe, 20 mM NaPi 100 mM NaCl pH 7.5, 10% DMSO, 25 °C. Here is the method:
The syringe contained 2 mM of peptide, while the cell held 150 µM or 300 µM of protein. […] For the ITC titrations, equal amounts of DMSO (10%) were included in both compartments to minimize the heat of dilution. Each titration consisted of a first injection of 0.4 µL, followed by 12-13 injections of 2 µL peptide into the cell, separated by intervals of 120 s. The first injection was discarded during the analysis of the data. The wild-type peptide titration on Smt3 was performed in duplicate. The Microcal LLC ITC200 Origin software was used to fit the data to a single binding site model.
A general note: ITC needs no label: the signal is the heat of the interaction.

In the next test the test system is U-[13C,15N] Smt3. In words: NMR chemical shift perturbation, SIM3 peptides with Smt3. It counts as binding, Saccharomyces cerevisiae. The note with it: 1.2 molar equivalents of peptide, 0.3 mM Smt3, 20 mM sodium phosphate, 20 mM NaCl pH 6.5, 298 K. The procedure: The samples contained 0.3–0.6 mM of U-[^13C,^15N] […] All NMR spectra were acquired at 298 K on a Bruker Avance III HD 800 MHz spectrometer, equipped with a TCI cryoprobe. The NMR data were acquired in TopSpin 3.6 (Bruker) and processed in NMRPipe v.7.5[76] and analyzed in CCPNMR v. 2.4.2[77]. Assignments of Smt3 backbone amide resonances were taken from literature[78] and verified by 3D HNCACB, HN(CO)CACB, and ^15N-edited NOESY-HSQC (mixing time 100 ms) spectra. Further assignments of methyl resonances were obtained from [^1H, ^13C] […] The assigned ^1H, ^13C and ^15N chemical shifts of the free and bound Smt3 have been deposited in the Biological Magnetic Resonance Bank (http://www.bmrb.wisc.edu/) under the accession number 53209.
The NMR binding experiments were performed by an incremental addition of wild-type or mutant SIM peptides (1.2 mM stocks in the working buffer) to 0.3 mM samples of U-[^13C,^15N] Smt3, with the spectral changes monitored in [^1H,^15N] HSQC spectra acquired at each increment and [^1H, ^13C] […] The average chemical shift perturbations (Δδavg) were calculated as Δδavg = (ΔδX^2/n + ΔδH^2/2)^0.5, where ΔδX and ΔδH are the chemical shift changes of the backbone amide nitrogens or methyl carbons (ΔδX) and protons (ΔδH) of Smt3 residues upon addition of 1.2 molar equivalents of SIM peptides, and n = 50 or 9 for the backbone amide and methyl groups, respectively.

T1 sequence (Q12306 whole entry): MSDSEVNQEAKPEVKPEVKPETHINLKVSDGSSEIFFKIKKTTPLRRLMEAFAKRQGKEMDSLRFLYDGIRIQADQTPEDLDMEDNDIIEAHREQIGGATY

For “ENDAIAVSTDE [mutant SIM3 peptide, SIM3 peptide with I633 and M635 mutated to alanine]”, on Smt3, the “ITC interaction with Smt3” value is “failed to interact with Smt3”. With ENDIIMVSTDE [wild-type SIM3 peptide], the “Average backbone amide chemical shift perturbation of Smt3 (in words)” value with U-[13C,15N] Smt3 is “induced strong backbone amide chemical shift to Smt3 residues I35, F36, F37, K38, I39 and R46”.
